# Assay results as given in patent US5674911A, “Antiinfective polyoxypropylene/polyoxyethylene copolymers and methods of use” (Cytrx Corporation, priority 1995, dated 1997).
# Legend:
# [1] = tested on: human peripheral blood mononuclear cells (PBMC); assay: growth / cytotoxicity in uninfected mitogen stimulated human PBMC; details: 144 h, read-out: % Growth inhibition, PBMC
# in vitro = details: human, pha-stimulated pbmc
# [2] = growth / cytotoxicity in Vero cells; details: african green monkey, vero cells
# Vero cells = assay: growth / cytotoxicity in Vero cells; details: Chlorocebus sabaeus, Vero, 96 h, read-out: % Growth inhibition, Vero
# HIV-1 (strain LAV-1) = assay: anti-HIV-1 assay in PBMC (reverse transcriptase activity); format: cell-based; details: Human immunodeficiency virus 1, PBMC, 144 h, read-out: Anti-HIV-1 in PBMC: EC50
# Mycobacterium avium = assay: growth index of Mycobacterium avium in Bactec 7H12 Middlebrook broth (14C fatty acid); details: 0.04 μg/ml (FIG. 35)
structure (smiles),measurement,setting,value
"Cc1cn([C@H]2C[C@H](N=[N+]=[N-])[C@@H](CO)O2)c(=O)[nH]c1=O [AZT, azidothymidine]",inhibition at 0.1 µM,[1],-8.9%
same,inhibition at 1 µM,[1],-2.2%
same,inhibition at 10 µM,[1],5.5%
same,inhibition at 50 µM,[1],16.8%
same,inhibition at 100 µM,[1],28.4%
same,CC50 at 144 h,in vitro,> 100 µM
same,CC50 at 96 h,[2],50.6 µM
same,inhibition at 0.1 µM,Vero cells,-1.8%
same,inhibition at 1 µM,Vero cells,10.2%
same,inhibition at 10 µM,Vero cells,20.7%
same,inhibition at 50 µM,Vero cells,47.4%
same,inhibition at 100 µM,Vero cells,66.3%
same,EC50,HIV-1 (strain LAV-1),0.0056 µM
"CO[C@H]1/C=C/O[C@@]2(C)Oc3c(C)c(O)c4c(O)c(c(/C=N/N5CCN(C)CC5)c(O)c4c3C2=O)NC(=O)/C(C)=C\C=C\[C@H](C)[C@H](O)[C@@H](C)[C@@H](O)[C@@H](C)[C@H](OC(C)=O)[C@@H]1C [Rifampin, rifampin]",inhibiting growth of M. avium,Mycobacterium avium,effective in inhibiting growth
